Test results published in ChEMBL document CHEMBL1154091, “Reaction of the antitumor antibiotic olivomycin I with aryl diazonium salts. Synthesis, cytotoxic and antiretroviral potency of 5-aryldiazenyl-6-O-deglycosyl derivatives of olivomycin I” (Bioorg Med Chem, 2009).
Calls of active or inactive are those of the source. The rule behind the calls is not given here.

Legend:
L1210 = test: Antiproliferative against mouse L1210 cells after 48 hrs; type: functional, cell-based; settings: L1210, 48 h
[1] = Antiproliferative against human Molt4/C8 cells after 72 hrs; type: functional, cell-based; settings: MOLT-4, 72 h
CCRF-CEM = test: Antiproliferative against human CEM cells after 72 hrs; type: cell-based
[2] = biological target: T1, DNA topoisomerase 1 (Homo sapiens) (UniProt P11387); test: Inhibition of DNA topoisomerase 1 assessed as inhibition of unwinding of supercoiled pBR322 DNA at 20 uM by agarose gel electrophoresis
T1 sequence (whole entry): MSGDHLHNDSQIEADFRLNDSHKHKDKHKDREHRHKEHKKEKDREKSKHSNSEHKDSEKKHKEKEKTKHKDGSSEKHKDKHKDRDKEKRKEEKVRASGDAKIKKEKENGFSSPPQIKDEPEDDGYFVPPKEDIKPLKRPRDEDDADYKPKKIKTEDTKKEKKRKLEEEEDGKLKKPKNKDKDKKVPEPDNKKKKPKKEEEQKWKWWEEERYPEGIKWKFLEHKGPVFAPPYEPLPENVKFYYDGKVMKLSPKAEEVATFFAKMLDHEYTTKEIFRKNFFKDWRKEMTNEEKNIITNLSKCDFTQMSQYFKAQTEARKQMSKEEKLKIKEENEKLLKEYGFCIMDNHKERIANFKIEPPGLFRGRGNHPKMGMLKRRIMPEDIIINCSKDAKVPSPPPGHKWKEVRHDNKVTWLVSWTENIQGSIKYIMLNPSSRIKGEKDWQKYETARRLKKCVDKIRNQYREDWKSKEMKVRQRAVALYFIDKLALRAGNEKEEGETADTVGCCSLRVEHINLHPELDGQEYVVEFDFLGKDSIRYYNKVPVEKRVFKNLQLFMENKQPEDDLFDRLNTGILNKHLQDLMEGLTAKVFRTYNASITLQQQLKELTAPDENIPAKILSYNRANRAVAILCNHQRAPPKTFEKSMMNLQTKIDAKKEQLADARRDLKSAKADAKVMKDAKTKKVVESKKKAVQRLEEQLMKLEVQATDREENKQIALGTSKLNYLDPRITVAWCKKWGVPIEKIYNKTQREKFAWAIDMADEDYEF

[3] = test system: Human immunodeficiency virus 1; test: Antiviral activity against HIV1 3B infected in human CEM cells assessed as drug level required for protection against virus-induced cytopathogenicity after 4 days; type: functional, organism-based; settings: Human immunodeficiency virus 1, 3B, CCRF-CEM, 96 h
[4] = test system: Human immunodeficiency virus 2; test: Antiviral activity against HIV2 ROD infected in human CEM cells assessed as drug level required for protection against virus-induced cytopathogenicity after 4 days; type: functional, organism-based; settings: Human immunodeficiency virus 2, ISOLATE ROD, CCRF-CEM, 96 h
[5] = Selectivity index, ratio of IC50 for human CEM cells to EC50 for HIV1 3B; type: toxicity, cell-based, CCRF-CEM; settings: read-out: Ratio IC50/EC50
Human alphaherpesvirus 1 = test: Antiviral activity against HSV1 infected in HEL cells at subtoxic concentration; type: functional, organism-based
Human alphaherpesvirus 2 = test: Antiviral activity against HSV2 infected in HEL cells at subtoxic concentration; type: functional, organism-based
Vaccinia virus = test: Antiviral activity against Vaccinia virus infected in HEL cells at subtoxic concentration; type: functional, organism-based; settings: Orthopoxvirus vaccinia
[6] = test system: Vesicular stomatitis virus; test: Antiviral activity against VSV infected in HEL cells at subtoxic concentration; type: functional, organism-based
[7] = test system: Vesicular stomatitis virus; test: Antiviral activity against VSV infected in human HeLa cells at subtoxic concentration; type: functional, organism-based
Coxsackievirus B4 [8] = test: Antiviral activity against Coxsackievirus B4 infected in human HeLa cells at subtoxic concentration; type: functional, organism-based
[9] = test system: Respiratory syncytial virus; test: Antiviral activity against Respiratory syncytial virus infected in human HeLa cells at subtoxic concentration; type: functional, organism-based
Human respirovirus 3 = test: Antiviral activity against Parainfluenza virus 3 infected in african green monkey Vero cells at subtoxic concentration; type: functional, organism-based
[10] = test system: Mammalian orthoreovirus 1; test: Antiviral activity against Reovirus 1 infected in african green monkey Vero cells at subtoxic concentration; type: functional, organism-based
Sindbis virus = test: Antiviral activity against Sindbis virus infected in african green monkey Vero cells at subtoxic concentration; type: functional, organism-based
Coxsackievirus B4 [11] = test: Antiviral activity against Coxsackievirus B4 infected in african green monkey Vero cells at subtoxic concentration; type: functional, organism-based
Punta Toro virus = test: Antiviral activity against Punta Toro virus infected in african green monkey Vero cells at subtoxic concentration; type: functional, organism-based
Influenza A virus = test: Antiviral activity against influenza A virus H1N1:H3N2 infected in […] cells at subtoxic concentration; type: functional, organism-based
Influenza B virus = test: Antiviral activity against influenza B virus infected in […] cells at subtoxic concentration; type: functional, organism-based
K562 = test: Antiproliferative against human K562 cells after 72 hrs; type: functional, cell-based; settings: K562, 72 h
HCT-116 = test: Antiproliferative against human HCT116 cells after 72 hrs; type: functional, cell-based; settings: HCT-116, 72 h
[12] = biological target: T1, DNA topoisomerase 1 (Homo sapiens); test: Inhibition of DNA topoisomerase 1 assessed as inhibition of unwinding of supercoiled pBR322 DNA at 10 to 20 uM by agarose gel electrophoresis
[13] = biological target: T1, DNA topoisomerase 1 (Homo sapiens); test: Inhibition of DNA topoisomerase 1 assessed as partial inhibition of unwinding of supercoiled pBR322 DNA at 5 uM by agarose gel electrophoresis
[14] = biological target: T1, DNA topoisomerase 1 (Homo sapiens); test: Inhibition of DNA topoisomerase 1 assessed as partial inhibition of unwinding of supercoiled pBR322 DNA at 20 uM by agarose gel electrophoresis

CO[C@H](C(=O)[C@@H](O)[C@@H](C)O)[C@@H]1Cc2cc3c(/N=N/c4ccc(Cl)c(Cl)c4)c(O)cc(O)c3c(O)c2C(=O)[C@H]1O[C@H]1C[C@@H](O[C@H]2C[C@@H](O[C@H]3C[C@](C)(O)[C@@H](OC(=O)C(C)C)[C@H](C)O3)[C@H](O)[C@@H](C)O2)[C@H](O)[C@@H](C)O1
IC50 (L1210): 5.6 µM
IC50 [1]: 1900 nM
IC50 (CCRF-CEM): 2600 nM
Activity [2]: Active
EC50 [3]: 500 nM
EC50 [4]: ≥ 800 nM
selectivity ratio [5]: 5.2
Activity (Human alphaherpesvirus 1): inactive
Activity (Human alphaherpesvirus 2): inactive
Activity (Vaccinia virus): inactive
Activity [6]: inactive
Activity [7]: inactive
Activity (Coxsackievirus B4 [8]): inactive
Activity [9]: inactive
Activity (Human respirovirus 3): inactive
Activity [10]: inactive
Activity (Sindbis virus): inactive
Activity (Coxsackievirus B4 [11]): inactive
Activity (Punta Toro virus): inactive
Activity (Influenza A virus): inactive
Activity (Influenza B virus): inactive

CO[C@H](C(=O)[C@@H](O)[C@@H](C)O)[C@@H]1Cc2cc3c(/N=N/c4ccc(S(N)(=O)=O)cc4)c(O)cc(O)c3c(O)c2C(=O)[C@H]1O[C@H]1C[C@@H](O[C@H]2C[C@@H](O[C@H]3C[C@](C)(O)[C@@H](OC(=O)C(C)C)[C@H](C)O3)[C@H](O)[C@@H](C)O2)[C@H](O)[C@@H](C)O1
IC50 (L1210): > 100 µM
IC50 [1]: > 100000 nM
IC50 (CCRF-CEM): > 100000 nM
Activity [2]: inactive
EC50 [3]: 50000 nM
EC50 [4]: > 100000 nM
selectivity ratio [5]: > 2
Activity (Human alphaherpesvirus 1): inactive
Activity (Human alphaherpesvirus 2): inactive
Activity (Vaccinia virus): inactive
Activity [6]: inactive
Activity [7]: inactive
Activity (Coxsackievirus B4 [8]): inactive
Activity [9]: inactive
Activity (Human respirovirus 3): inactive
Activity [10]: inactive
Activity (Sindbis virus): inactive
Activity (Coxsackievirus B4 [11]): inactive
Activity (Punta Toro virus): inactive
Activity (Influenza A virus): inactive
Activity (Influenza B virus): inactive

CO[C@H](C(=O)[C@@H](O)[C@@H](C)O)[C@@H]1Cc2cc3c(/N=N/c4ccccc4)c(O)cc(O)c3c(O)c2C(=O)[C@H]1O[C@H]1C[C@@H](O[C@H]2C[C@@H](O[C@H]3C[C@](C)(O)[C@@H](OC(=O)C(C)C)[C@H](C)O3)[C@H](O)[C@@H](C)O2)[C@H](O)[C@@H](C)O1
IC50 (L1210): 6.1 µM
IC50 [1]: 1600 nM
IC50 (CCRF-CEM): 1800 nM
Activity [2]: inactive
EC50 [3]: 60 nM
EC50 [4]: ≥ 40 nM
selectivity ratio [5]: 30
Activity (Human alphaherpesvirus 1): inactive
Activity (Human alphaherpesvirus 2): inactive
Activity (Vaccinia virus): inactive
Activity [6]: inactive
Activity [7]: inactive
Activity (Coxsackievirus B4 [8]): inactive
Activity [9]: inactive
Activity (Human respirovirus 3): inactive
Activity [10]: inactive
Activity (Sindbis virus): inactive
Activity (Coxsackievirus B4 [11]): inactive
Activity (Punta Toro virus): inactive
Activity (Influenza A virus): inactive
Activity (Influenza B virus): inactive

CO[C@@H]1[C@H](O)C[C@@H](O[C@@H]2C[C@H](Oc3cc(O)c4c(O)c5c(cc4c3)C[C@@H]([C@H](OC)C(=O)[C@@H](O)[C@@H](C)O)[C@H](O[C@H]3C[C@@H](O[C@H]4C[C@@H](O[C@H]6C[C@](C)(O)[C@@H](OC(=O)C(C)C)[C@H](C)O6)[C@H](O)[C@@H](C)O4)[C@H](O)[C@@H](C)O3)C5=O)O[C@H](C)[C@@H]2OC(C)=O)O[C@@H]1C [OLIVOMYCIN I]
IC50 (L1210): 0.034 µM
IC50 [1]: 4 nM
IC50 (CCRF-CEM): 2.5 nM
IC50 (K562): 44 nM
IC50 (HCT-116): 55 nM
Activity [12]: Active
Activity [13]: Active
EC50 [3]: 5 nM
EC50 [4]: 4 nM

COc1ccc(/N=N/c2c(O)cc(O)c3c(O)c4c(cc23)C[C@@H]([C@H](OC)C(=O)[C@@H](O)[C@@H](C)O)[C@H](O[C@H]2C[C@@H](O[C@H]3C[C@@H](O[C@H]5C[C@](C)(O)[C@@H](OC(=O)C(C)C)[C@H](C)O5)[C@H](O)[C@@H](C)O3)[C@H](O)[C@@H](C)O2)C4=O)cc1
IC50 (L1210): 20 µM
IC50 [1]: 7300 nM
IC50 (CCRF-CEM): 26000 nM
Activity [2]: inactive
EC50 [3]: 500 nM
EC50 [4]: ≥ 4000 nM
selectivity ratio [5]: 52
Activity (Human alphaherpesvirus 1): inactive
Activity (Human alphaherpesvirus 2): inactive
Activity (Vaccinia virus): inactive
Activity [6]: inactive
Activity [7]: inactive
Activity (Coxsackievirus B4 [8]): inactive
Activity [9]: inactive
Activity (Human respirovirus 3): inactive
Activity [10]: inactive
Activity (Sindbis virus): inactive
Activity (Coxsackievirus B4 [11]): inactive
Activity (Punta Toro virus): inactive
Activity (Influenza A virus): inactive
Activity (Influenza B virus): inactive

CO[C@H](C(=O)[C@@H](O)[C@@H](C)O)[C@@H]1Cc2cc3c(/N=N/c4ccc(C)cc4)c(O)cc(O)c3c(O)c2C(=O)[C@H]1O[C@H]1C[C@@H](O[C@H]2C[C@@H](O[C@H]3C[C@](C)(O)[C@@H](OC(=O)C(C)C)[C@H](C)O3)[C@H](O)[C@@H](C)O2)[C@H](O)[C@@H](C)O1
IC50 (K562): 2000 nM
IC50 (HCT-116): 2400 nM
Activity [14]: Active

CO[C@@H]1[C@H](O)C[C@@H](O[C@@H]2C[C@H](Oc3cc(OC(C)=O)c4c(O)c5c(cc4c3)C[C@@H]([C@H](OC)C(=O)[C@@H](O)[C@@H](C)O)[C@H](O[C@H]3C[C@@H](O[C@H]4C[C@@H](O[C@H]6C[C@](C)(O)[C@@H](OC(=O)C(C)C)[C@H](C)O6)[C@H](O)[C@@H](C)O4)[C@H](O)[C@@H](C)O3)C5=O)O[C@H](C)[C@@H]2OC(C)=O)O[C@@H]1C
IC50 (L1210): 0.008 µM
IC50 [1]: 22 nM
IC50 (CCRF-CEM): 2.4 nM
